{
  "source": "patent US20250122182A1",
  "about": "(Isosterix, Inc., priority 2023, published 2025)",
  "target": "Recombinant KAT6A/MOZ (488-778) protein (Homo sapiens (Human), UniProt Q92794)",
  "sequence (Q92794 488-778)": "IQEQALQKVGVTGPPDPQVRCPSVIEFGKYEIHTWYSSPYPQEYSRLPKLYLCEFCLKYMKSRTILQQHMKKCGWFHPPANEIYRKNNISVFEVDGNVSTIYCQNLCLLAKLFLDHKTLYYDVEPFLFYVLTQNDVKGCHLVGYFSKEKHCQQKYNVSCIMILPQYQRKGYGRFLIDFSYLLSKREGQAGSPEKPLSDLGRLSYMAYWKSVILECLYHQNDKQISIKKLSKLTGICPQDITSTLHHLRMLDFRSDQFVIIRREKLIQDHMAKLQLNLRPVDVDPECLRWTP",
  "assay": "KAT6A AlphaLISA Inhibition Screening Assay",
  "format": "biochemical",
  "conditions": "for inhibition at 1 µM: read-out: Average Kat6A % inhibition @ 1 μM, 1 μM test compound; for inhibition at 10 µM: read-out: Average Kat6A % inhibition @ 10 μM, 10 μM test compound",
  "how_it_was_run": "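AlphaLISA read-out with anti-acetyl-lysine acceptor and streptavidin donor beads, % inhibition relative to vehicle. Reaction: biotinylated histone H3 1-21 (200 nM) and acetyl-CoA (400 nM) with KAT6A 488-778 (25 nM), 120 min at room temperature, pH 8.0, 330 nM TSA, after 60 or 10 min enzyme–compound pre-incubation; 10-point 3-fold series from 10 μM.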",
  "data": [
    {"smiles": "C=C(F)C(=O)NCc1cnn(Cc2cc(OC)c3c(NS(=O)(=O)c4cc(C)ccc4OC)noc3c2)c1", "note": "[Syn. Ex. 89, 2-fluoro-N-((1-((4-methoxy-3-((2-methoxy-5-methylphenyl)sulfonamido)benzo[d]isoxazol-6-yl)methyl)-1H-pyrazol-4-yl)methyl)acrylamide]", "values": [
      {"measurement": "inhibition at 1 µM", "result": 100, "unit": "%"},
      {"measurement": "inhibition at 10 µM", "result": 100, "unit": "%"}
    ]},
    {"smiles": "CCc1ccc(OC)c(S(=O)(=O)Nc2noc3cc(Cn4cc(CNC(N)=O)cn4)cc(OC)c23)c1", "note": "[Syn. Ex. 90, 5-ethyl-2-methoxy-N-(4-methoxy-6-((4-(ureidomethyl)-1H-pyrazol-1-yl)methyl)benzo[d]isoxazol-3-yl)benzenesulfonamide]", "values": [
      {"measurement": "inhibition at 1 µM", "result": 99, "unit": "%"},
      {"measurement": "inhibition at 10 µM", "result": 100, "unit": "%"}
    ]},
    {"smiles": "CCc1ccc(OC)c(S(=O)(=O)Nc2noc3cc(Cn4cc(CNC(=O)NC)cn4)cc(OC)c23)c1", "note": "[Syn. Ex. 91, 5-ethyl-2-methoxy-N-(4-methoxy-6-((4-((3-methylureido)methyl)-1H-pyrazol-1-yl)methyl)benzo[d]isoxazol-3-yl)benzenesulfonamide]", "values": [
      {"measurement": "inhibition at 1 µM", "result": 99, "unit": "%"},
      {"measurement": "inhibition at 10 µM", "result": 100, "unit": "%"}
    ]},
    {"smiles": "C=C(F)C(=O)NCc1cnn(Cc2cc(OC)c3c(NS(=O)(=O)c4cc(CC)ccc4OCc4ccccc4)noc3c2)c1", "note": "[Syn. Ex. 92, N-((1-((3-((2-(benzyloxy)-5-ethylphenyl)sulfonamido)-4-methoxybenzo[d]isoxazol-6-yl)methyl)-1H-pyrazol-4-yl)methyl)-2-fluoroacrylamide]", "values": [
      {"measurement": "inhibition at 1 µM", "result": 100, "unit": "%"},
      {"measurement": "inhibition at 10 µM", "result": 100, "unit": "%"}
    ]},
    {"smiles": "CCc1ccc(OCc2ccccc2)c(S(=O)(=O)Nc2noc3cc(Cn4cc(CNC(=O)OC)cn4)cc(OC)c23)c1", "note": "[Syn. Ex. 93, methyl ((1-((3-((2-(benzyloxy)-5-ethylphenyl)sulfonamido)-4-methoxybenzo[d]isoxazol-6-yl)methyl)-1H-pyrazol-4-yl)methyl)carbamate]", "values": [
      {"measurement": "inhibition at 1 µM", "result": 90, "unit": "%"},
      {"measurement": "inhibition at 10 µM", "result": 98, "unit": "%"}
    ]},
    {"smiles": "C=C(F)C(=O)NCc1cnn(Cc2cc(OC)c3c(NS(=O)(=O)c4cc(CC)ccc4OCc4ccnc(OC)c4)noc3c2)c1", "note": "[Syn. Ex. 94, N-((1-((3-((5-ethyl-2-((2-methoxypyridin-4-yl)methoxy)phenyl)sulfonamido)-4-methoxybenzo[d]isoxazol-6-yl)methyl)-1H-pyrazol-4-yl)methyl)-2-fluoroacrylamide]", "values": [
      {"measurement": "inhibition at 1 µM", "result": 100, "unit": "%"},
      {"measurement": "inhibition at 10 µM", "result": 100, "unit": "%"}
    ]},
    {"smiles": "CCc1ccc(OCc2ccnc(OC)c2)c(S(=O)(=O)Nc2noc3cc(Cn4cc(CNC(=O)OC)cn4)cc(OC)c23)c1", "note": "[Syn. Ex. 95, methyl ((1-((3-((5-ethyl-2-((2-methoxypyridin-4-yl)methoxy)phenyl)sulfonamido)-4-methoxybenzo[d]isoxazol-6-yl)methyl)-1H-pyrazol-4-yl)methyl)carbamate]", "values": [
      {"measurement": "inhibition at 1 µM", "result": 100, "unit": "%"},
      {"measurement": "inhibition at 10 µM", "result": 100, "unit": "%"}
    ]},
    {"smiles": "C=C(F)C(=O)NCc1cnn(Cc2cc3onc(NS(=O)(=O)c4cc(CC)ccc4OC)c3c3c2CCCO3)c1", "note": "[Syn. Ex. 96, N-((1-((9-((5-ethyl-2-methoxyphenyl)sulfonamido)-3,4-dihydro-2H-chromeno[8,7-d]isoxazol-5-yl)methyl)-1H-pyrazol-4-yl)methyl)-2-fluoroacrylamide]", "values": [
      {"measurement": "inhibition at 1 µM", "result": 100, "unit": "%"},
      {"measurement": "inhibition at 10 µM", "result": 100, "unit": "%"}
    ]},
    {"smiles": "CCc1ccc(OC)c(S(=O)(=O)Nc2noc3cc(Cn4cc(CNC(=O)OC)cn4)c4c(c23)OCCC4)c1", "note": "[Syn. Ex. 97, methyl ((1-((9-((5-ethyl-2-methoxyphenyl)sulfonamido)-3,4-dihydro-2H-chromeno[8,7-d]isoxazol-5-yl)methyl)-1H-pyrazol-4-yl)methyl)carbamate]", "values": [
      {"measurement": "inhibition at 1 µM", "result": 100, "unit": "%"},
      {"measurement": "inhibition at 10 µM", "result": 100, "unit": "%"}
    ]},
    {"smiles": "CCc1ccc(OC)c(S(=O)(=O)Nc2noc3cc(Oc4ncc(CN[S+]([O-])C(C)(C)C)o4)cc(OC)c23)c1", "note": "(stereo not drawn) [Syn. Ex. 98, N-(6-((5-(((tert-Butylsulfinyl)amino)methyl)oxazol-2-yl)oxy)-4-methoxybenzo[d]isoxazol-3-yl)-5-ethyl-2-methoxybenzenesulfonamide]", "values": [
      {"measurement": "inhibition at 1 µM", "result": 78, "unit": "%"},
      {"measurement": "inhibition at 10 µM", "result": 92, "unit": "%"}
    ]},
    {"smiles": "C=C(F)C(=O)NCc1cnc(Oc2cc(OC)c3c(NS(=O)(=O)c4cc(CC)ccc4OC)noc3c2)o1", "note": "[Syn. Ex. 99, N-((2-((3-((5-ethyl-2-methoxyphenyl)sulfonamido)-4-methoxybenzo[d]isoxazol-6-yl)oxy)oxazol-5-yl)methyl)-2-fluoroacrylamide]", "values": [
      {"measurement": "inhibition at 1 µM", "result": 91, "unit": "%"},
      {"measurement": "inhibition at 10 µM", "result": 100, "unit": "%"}
    ]},
    {"smiles": "CCc1ccc(OC)c(S(=O)(=O)Nc2noc3cc(Oc4ncc(CNC(=O)OC)o4)cc(OC)c23)c1", "note": "[Syn. Ex. 100, methyl ((2-((3-((5-ethyl-2-methoxyphenyl)sulfonamido)-4-methoxybenzo[d]isoxazol-6-yl)oxy)oxazol-5-yl)methyl)carbamate]", "values": [
      {"measurement": "inhibition at 1 µM", "result": 92, "unit": "%"},
      {"measurement": "inhibition at 10 µM", "result": 100, "unit": "%"}
    ]},
    {"smiles": "C#CC(=O)NCc1cnc(Oc2cc(OC)c3c(NS(=O)(=O)c4cc(CC)ccc4OC)noc3c2)s1", "note": "[Syn. Ex. 103, N-((2-((3-((5-ethyl-2-methoxyphenyl)sulfonamido)-4-methoxybenzo[d]isoxazol-6-yl)oxy)thiazol-5-yl)methyl)propiolamide]", "values": [
      {"measurement": "inhibition at 1 µM", "result": 97, "unit": "%"},
      {"measurement": "inhibition at 10 µM", "result": 99, "unit": "%"}
    ]},
    {"smiles": "CCc1ccc(OC)c(S(=O)(=O)Nc2noc3cc(Oc4nc(CNC(=O)OC)cs4)cc(OC)c23)c1", "note": "[Syn. Ex. 104, methyl ((2-((3-((5-ethyl-2-methoxyphenyl)sulfonamido)-4-methoxybenzo[d]isoxazol-6-yl)oxy)thiazol-4-yl)methyl)carbamate]", "values": [
      {"measurement": "inhibition at 1 µM", "result": 25, "unit": "%"},
      {"measurement": "inhibition at 10 µM", "result": 92, "unit": "%"}
    ]},
    {"smiles": "C=C(F)C(=O)NCc1csc(Oc2cc(OC)c3c(NS(=O)(=O)c4cc(CC)ccc4OC)noc3c2)n1", "note": "[Syn. Ex. 105, N-((2-((3-((5-ethyl-2-methoxyphenyl)sulfonamido)-4-methoxybenzo[d]isoxazol-6-yl)oxy)thiazol-4-yl)methyl)-2-fluoroacrylamide]", "values": [
      {"measurement": "inhibition at 1 µM", "result": 68, "unit": "%"},
      {"measurement": "inhibition at 10 µM", "result": 99, "unit": "%"}
    ]},
    {"smiles": "CCc1ccc(OC)c(S(=O)(=O)Nc2noc3cc(Oc4cccc(CNC(=O)OC)n4)cc(OC)c23)c1", "note": "[Syn. Ex. 106, methyl ((6-((3-((5-ethyl-2-methoxyphenyl)sulfonamido)-4-methoxybenzo[d]isoxazol-6-yl)oxy)pyridin-2-yl)methyl)carbamate]", "values": [
      {"measurement": "inhibition at 1 µM", "result": 10, "unit": "%"},
      {"measurement": "inhibition at 10 µM", "result": 44, "unit": "%"}
    ]},
    {"smiles": "C#CC(=O)Nc1ccc(Oc2cc(OC)c3c(NS(=O)(=O)c4cc(CC)ccc4OC)noc3c2)nc1", "note": "[Syn. Ex. 108, N-(6-((3-((5-ethyl-2-methoxyphenyl)sulfonamido)-4-methoxybenzo[d]isoxazol-6-yl)oxy)pyridin-3-yl)propiolamide]", "values": [
      {"measurement": "inhibition at 1 µM", "result": 99, "unit": "%"},
      {"measurement": "inhibition at 10 µM", "result": 100, "unit": "%"}
    ]},
    {"smiles": "CCc1ccc(OC)c(S(=O)(=O)Nc2noc3cc(Oc4ccc(N)cn4)cc(OC)c23)c1", "note": "[Syn. Ex. 109, N-(6-((5-aminopyridin-2-yl)oxy)-4-methoxybenzo[d]isoxazol-3-yl)-5-ethyl-2-methoxybenzenesulfonamide]", "values": [
      {"measurement": "inhibition at 1 µM", "result": 95, "unit": "%"},
      {"measurement": "inhibition at 10 µM", "result": 98, "unit": "%"}
    ]},
    {"smiles": "CCc1ccc(OC)c(S(=O)(=O)Nc2noc3cc(Oc4cc(CNC(=O)OC)ccn4)cc(OC)c23)c1", "note": "[Syn. Ex. 110, methyl ((2-((3-((5-ethyl-2-methoxyphenyl)sulfonamido)-4-methoxybenzo[d]isoxazol-6-yl)oxy)pyridin-4-yl)methyl)carbamate]", "values": [
      {"measurement": "inhibition at 1 µM", "result": 9, "unit": "%"},
      {"measurement": "inhibition at 10 µM", "result": 58, "unit": "%"}
    ]},
    {"smiles": "C=C(F)C(=O)NCc1ccnc(Oc2cc(OC)c3c(NS(=O)(=O)c4cc(CC)ccc4OC)noc3c2)c1", "note": "[Syn. Ex. 111, N-((2-((3-((5-ethyl-2-methoxyphenyl)sulfonamido)-4-methoxybenzo[d]isoxazol-6-yl)oxy)pyridin-4-yl)methyl)-2-fluoroacrylamide]", "values": [
      {"measurement": "inhibition at 1 µM", "result": 0, "unit": "%"},
      {"measurement": "inhibition at 10 µM", "result": 54, "unit": "%"}
    ]},
    {"smiles": "C#Cc1ccc(OC)c(S(=O)(=O)Nc2noc3cc(Cn4cc(CNC(=O)OC)cn4)cc(OC)c23)c1", "note": "[Syn. Ex. 112, methyl ((1-((3-((5-ethynyl-2-methoxyphenyl)sulfonamido)-4-methoxybenzo[d]isoxazol-6-yl)methyl)-1H-pyrazol-4-yl)methyl)carbamate]", "values": [
      {"measurement": "inhibition at 1 µM", "result": 70, "unit": "%"},
      {"measurement": "inhibition at 10 µM", "result": 98, "unit": "%"}
    ]},
    {"smiles": "C=C(F)C(=O)NCc1cnn(Cc2cc(OC)c3c(NS(=O)(=O)c4cc(CC)ccc4OCCO)noc3c2)c1", "note": "[Syn. Ex. 113, N-((1-((3-((5-ethyl-2-(2-hydroxyethoxy)phenyl)sulfonamido)-4-methoxybenzo[d]isoxazol-6-yl)methyl)-1H-pyrazol-4-yl)methyl)-2-fluoroacrylamide]", "values": [
      {"measurement": "inhibition at 1 µM", "result": 98, "unit": "%"},
      {"measurement": "inhibition at 10 µM", "result": 100, "unit": "%"}
    ]},
    {"smiles": "C=C(F)C(=O)NCc1cnn(Cc2cc(OC)c3c(NS(=O)(=O)c4cc(CC)ccc4OCc4cnn[nH]4)noc3c2)c1", "note": "[Syn. Ex. 114, N-((1-((3-((2-((1H-1,2,3-triazol-5-yl)methoxy)-5-ethylphenyl)sulfonamido)-4-methoxybenzo[d]isoxazol-6-yl)methyl)-1H-pyrazol-4-yl)methyl)-2-fluoroacrylamide]", "values": [
      {"measurement": "inhibition at 1 µM", "result": 100, "unit": "%"},
      {"measurement": "inhibition at 10 µM", "result": 100, "unit": "%"}
    ]},
    {"smiles": "CCc1ccc(OCC(=N)NO)c(S(=O)(=O)Nc2noc3cc(Cn4cc(CNC(=O)OC)cn4)cc(OC)c23)c1", "note": "[Syn. Ex. 115, methyl ((1-((3-((5-ethyl-2-(2-(hydroxyamino)-2-iminoethoxy)phenyl)sulfonamido)-4-methoxybenzo[d]isoxazol-6-yl)methyl)-1H-pyrazol-4-yl)methyl)carbamate]", "values": [
      {"measurement": "inhibition at 1 µM", "result": 100, "unit": "%"},
      {"measurement": "inhibition at 10 µM", "result": 100, "unit": "%"}
    ]},
    {"smiles": "CCc1ccc(OCc2ncc[nH]2)c(S(=O)(=O)Nc2noc3cc(Cn4cc(CNC(=O)OC)cn4)cc(OC)c23)c1", "note": "[Syn. Ex. 116, methyl ((1-((3-((2-((1H-imidazol-2-yl)methoxy)-5-ethylphenyl)sulfonamido)-4-methoxybenzo[d]isoxazol-6-yl)methyl)-1H-pyrazol-4-yl)methyl)carbamate]", "values": [
      {"measurement": "inhibition at 1 µM", "result": 100, "unit": "%"},
      {"measurement": "inhibition at 10 µM", "result": 100, "unit": "%"}
    ]}
  ]
}
